The source of these data is patent publication US7855290B2, “Pyridine derivatives and pyrimidine derivatives (3)” (Eisai R&D Management Co., Ltd., priority 2005, dated 2010).

The test system of assay [1] is Human gastric cancer cells (MKN-45). In words: Inhibitory activity against the proliferation of human gastric cancer cells (MKN-45). It counts as cell-based. To be noted: 72 h, MKN-45, 1% FBS RPMI1640, 3 days, Cell Counting Kit-8. The protocol:
Human gastric cancer cells (MKN-45) were suspended in a 1% FBS-containing RPMI1640 medium (purchased from Sigma). The cell suspension (1×10^4 cells/ml) was added in a 96-well plate for cell culture (purchased from NUNC, Production No. 167008) at 0.1 ml/well, and then cultured in a 5% CO2 incubator (37° C.) overnight. After the culture, each well was supplied with 0.1 ml of a test substance diluted with a 1% FBS-containing RPMI1640 medium, followed by culturing in a 5% CO2 incubator (37° C.) for 3 days. After the culture, each well was supplied with 10 μl of Cell Counting Kit-8 (purchased from DOJINDO, Production No. 343-07623), followed by incubation in a 5% CO2 incubator (37° C.) for about 1.5 hrs. After the incubation, using the Plate Reader MTP-500 (Corona Electric), the absorbance of each well was determined at a measurement wavelength of 450 nm and a reference wavelength of 660 nm.
In general terms: Formazan colour is commonly taken as a measure of viable cells.

Assay [2] deals with Human umbilical vein endothelial cells (HUVECs). In words: Inhibitory activity against the growth of vascular endothelial cells stimulated with hepatocyte growth factor. Type of assay: cell-based. Particulars: HUVEC, HGF stimulated, third day, Cell Counting Kit-8, read-out: IC50 (cell proliferation activity). The method, then: Human umbilical vein endothelial cells (HUVECs) were isolated according to the reported method (Shin Seikagaku Jikken Koza, “Cell culturing techniques”, p 197-202), and then cultured in a 5% CO2 incubator (37° C.) using EGM-2 medium (purchased from Clonetics) until the cells reached confluency.
HUVECs were suspended in a serum-free medium for endothelial cell culture (SFM, purchased from GIBCO RBL) containing 2% FBS. The cell suspension (2×10^4 cells/ml) was put in a cell culturing 96-well plate (purchased from NUNC, Production No. 167008) at 0.1 ml/well, and then cultured in a 5% CO2 incubator (37° C.) overnight. After the culture, each well was supplied with 50 μl of the test substance diluted with a 2% FBS-containing serum-free medium for endothelial cell culture and 50 μl of HGF (purchased from R&D) diluted at a concentration of 120 ng/ml with a 2% FBS-containing serum-free medium for endothelial cell culture, followed by culturing in a 5% CO2 incubator (37° C.). On the third day after the addition of the test substance, each well was supplied with 10 μl of Cell Counting Kit-8 (purchased from DOJINDO, Production No. 343-07623), and then the plate was incubated in a 5% CO2 incubator (37° C.) for about 2 hours. After the incubation, using a Plate Reader MTP-500 (Corona Electric), the absorbance of each well was determined at a measurement wavelength of 450 nm and a reference wavelength of 660 nm. While defining the absorbance of a well supplied with HGF and no test substance as 100% cell proliferation activity and the absorbance of the well supplied with no test substance and no HGF as 0% cell proliferation activity, the cell proliferation activity ratio (%) was calculated for each cell.

As for `CN1CCN(C2CCN(C(=O)Nc3cc(Oc4ccc(NC(=O)C5(C(=O)Nc6ccc(F)cc6)CC5)c(F)c4)ccn3)CC2)CC1` [Example 15, N-(2-Fluoro-4-{[2-({[4-(4-methylpiperazin-1-yl)piperidin-1-yl]carbonyl}amino)pyridin-4-yl]oxy}phenyl)-N′-(4-fluorophenyl)cyclopropane-1,1-dicarboxamide], the IC50 is 17 nM in assay [1] and 15 nM in assay [2].
